target: human TRPV3 receptors (Homo sapiens (Human), UniProt Q8NET8); test: Calcium flux assay (FLIPR TETRA), inhibition of the 2-APB response; assay type: cell-based; conditions: recombinant HEK293 cells stably expressing TRPV3, Calcium-4 dye, 2-APB at its EC80
Procedure: (i) In Vitro Methods-Calcium Flux Assays:
Experiments were conducted using the FLIPR^TETRA®. On the day prior to the experiment, recombinant HEK293 cells that stably express human and mouse TRPV3 were removed from tissue culture flasks and plated in growth medium at 20,000 cells/well into black-walled clear-bottom 384-well Biocoat™ poly-D-lysine assay plates (BD Biosciences, Bedford, Mass.) using a Multidrop® dispenser (ThermoScientific, Waltham, Mass.). […] Cells were incubated for 90-120 minutes in the dark. Compounds were dissolved in DMSO to prepare a 10 mM stock solution. The intensity of the fluorescence was captured and digitally transferred to an interfaced PC. The peak increase in fluorescence over baseline (relative fluorescence units) was calculated and expressed as the percentage of the maximal 2-APB (2-aminoethoxyldiphenyl borate) response (in the absence of compound).

human TRPV3 receptors, sequence (Q8NET8 whole entry): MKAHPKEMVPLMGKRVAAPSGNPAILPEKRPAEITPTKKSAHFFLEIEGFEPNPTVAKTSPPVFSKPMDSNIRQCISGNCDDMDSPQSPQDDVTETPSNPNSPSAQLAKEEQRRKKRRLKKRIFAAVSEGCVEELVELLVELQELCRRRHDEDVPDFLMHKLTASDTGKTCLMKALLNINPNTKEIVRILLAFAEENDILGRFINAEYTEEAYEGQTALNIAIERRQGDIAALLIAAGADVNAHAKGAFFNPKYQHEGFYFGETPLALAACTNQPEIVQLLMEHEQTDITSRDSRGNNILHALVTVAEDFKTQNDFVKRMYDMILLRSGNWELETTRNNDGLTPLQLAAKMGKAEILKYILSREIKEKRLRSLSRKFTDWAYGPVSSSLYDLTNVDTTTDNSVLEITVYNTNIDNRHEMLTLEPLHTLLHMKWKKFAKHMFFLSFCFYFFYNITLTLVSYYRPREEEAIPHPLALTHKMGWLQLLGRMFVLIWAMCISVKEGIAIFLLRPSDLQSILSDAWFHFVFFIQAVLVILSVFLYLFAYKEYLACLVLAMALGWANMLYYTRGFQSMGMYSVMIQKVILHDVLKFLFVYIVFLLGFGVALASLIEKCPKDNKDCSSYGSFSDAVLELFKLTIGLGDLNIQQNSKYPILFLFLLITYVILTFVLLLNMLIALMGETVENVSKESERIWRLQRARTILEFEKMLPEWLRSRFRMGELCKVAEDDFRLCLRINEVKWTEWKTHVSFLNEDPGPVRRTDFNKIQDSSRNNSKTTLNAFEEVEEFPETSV

IC50 [nM]	Structure (SMILES)
660	CC(C)[C@H](CO)NCc1nc(C2CCCN(C(=O)OC(C)(C)C)C2)ccc1F (stereo partly drawn) [Example 219, tert-butyl 3-[5-fluoro-6-({[(2R)-1-hydroxy-3-methylbutan-2-yl]amino}methyl)pyridin-2-yl]piperidine-1-carboxylate]
2530	C[C@@H](O)[C@@H](CO)NCc1ccnc(-c2ccc(S(=O)(=O)C(F)(F)F)cc2)n1 [Example 212, (2R,3R)-2-{[(2-{4-[(trifluoromethyl)sulfonyl]phenyl}pyrimidin-4-yl)methyl]amino}butane-1,3-diol]
1230	CC(C)[C@H](CO)NCc1nc(C2CCCCCC2)ccc1F [Example 206]
830	CC(C)[C@H](CO)NCc1nc(-c2cccc(N3CCOCC3)c2)ccc1F [Example 44, (2R)-2-[({3-fluoro-6-[3-(morpholin-4-yl)phenyl]pyridin-2-yl}methyl)amino]-3-methylbutan-1-ol]
> 20000	OCC[C@H](NCc1ccnc(-c2ccc(C(F)(F)F)cc2)n1)c1ccccc1 [Example 163, (3S)-3-phenyl-3-[({2-[4-(trifluoromethyl)phenyl]pyrimidin-4-yl}methyl)amino]propan-1-ol]
> 20000	O[C@H]1CCCC[C@@H]1CNCc1ccnc(-c2ccc(C(F)(F)F)cc2)n1 [Example 165, (1S,2R)-2-{[({2-[4-(trifluoromethyl)phenyl]pyrimidin-4-yl}methyl)amino]methyl}cyclohexanol]
160	CC(C)[C@H](CO)NCc1nc(-c2cc(F)c(F)c(F)c2)ccc1F [Example 244, (2R)-2-({[3-fluoro-6-(3,4,5-trifluorophenyl)pyridin-2-yl]methyl}amino)-3-methylbutan-1-ol]
320	CC(C)[C@H](CO)NCc1nc(N2CCCC(C(F)(F)F)C2)ccc1F (stereo partly drawn) [Example 65, (2R)-2-[({3-fluoro-6-[3-(trifluoromethyl)piperidin-1-yl]pyridin-2-yl}methyl)amino]-3-methylbutan-1-ol]
3650	OC[C@@H]1[C@@H]2CC[C@@H](C2)[C@@H]1NCc1cccc(-c2ccc(C(F)(F)F)cc2)n1 [Example 9, {(1R,2R,3S,4S)-3-[({6-[4-(trifluoromethyl)phenyl]pyridin-2-yl}methyl)amino]bicyclo[2.2.1]heptan-2-yl}methanol]
15600	COCC(CO)NCc1ccnc(-c2ccc(C(F)(F)F)cc2)n1 (centres unmarked) [Example 144, 3-methoxy-2-[({2-[4-(trifluoromethyl)phenyl]pyrimidin-4-yl}methyl)amino]propan-1-ol]
1640	C[C@H](CO)NCc1nc(-c2ccc(C(F)(F)F)cc2)ccc1F [Example 82, (2R)-2-[({3-fluoro-6-[4-(trifluoromethyl)phenyl]pyridin-2-yl}methyl)amino]propan-1-ol]
730	Cc1nc(-c2ccccc2)sc1-c1ccc(F)c(CN[C@@H](CO)C(C)C)n1 [Example 287, (2R)-2-({[3-fluoro-6-(4-methyl-2-phenyl-1,3-thiazol-5-yl)pyridin-2-yl]methyl}amino)-3-methylbutan-1-ol]
700	CC(C)[C@@H](NCc1nc(-c2ccc(C(F)(F)F)cc2)ccc1F)C(C)O (stereo partly drawn) [Example 107, (3R)-3-[({3-fluoro-6-[4-(trifluoromethyl)phenyl]pyridin-2-yl}methyl)amino]-4-methylpentan-2-ol]
140	CC(C)[C@H](CO)NCc1nc(C2=CCC(F)(F)CC2)ccc1F [Example 224, (2R)-2-({[6-(4,4-difluorocyclohex-1-en-1-yl)-3-fluoropyridin-2-yl]methyl}amino)-3-methylbutan-1-ol]
220	OCC1(NCc2cccc(-c3cc(C(F)(F)F)cc(C(F)(F)F)c3)n2)CCCC1 [Example 272, {1-[({6-[3,5-bis(trifluoromethyl)phenyl]pyridin-2-yl}methyl)amino]cyclopentyl}methano 1]
480	CC(c1ccc(F)cc1)c1ccc(F)c(CN[C@@H](CO)C(C)C)n1 (stereo partly drawn) [Example 128, (2R)-2-[({3-fluoro-6-[1-(4-fluorophenyl)ethyl]pyridin-2-yl}methyl)amino]-3-methylbutan-1-ol]
> 20000	OC[C@@H]1[C@H]2CC[C@H](C2)[C@@H]1NCc1ccnc(-c2ccc(C(F)(F)F)cc2)n1 [Example 169, {(1S,2R,3S,4R)-3-[({2-[4-(trifluoromethyl)phenyl]pyrimidin-4-yl}methyl)amino]bicyclo[2.2.1]hept-2-yl]methanol]
2970	CCN(CC)C(=O)c1cccc(-c2ccc(F)c(CN[C@@H](CO)C(C)C)n2)c1 [Example 41, N,N-diethyl-3-[5-fluoro-6-({[(2R)-1-hydroxy-3-methylbutan-2-yl]amino}methyl)pyridin-2-yl]benzamide]
> 20000	CC(C)(O)[C@H](CO)NCc1ccnc(-c2ccc(C(F)(F)F)nc2)n1 [Example 189, (2S)-3-methyl-2-[({2-[6-(trifluoromethyl)pyridin-3-yl]pyrimidin-4-yl}methyl)amino]butane-1,3-diol]

IC50 [nM]	Structure (SMILES)
> 20000	OC[C@H]1CCCC[C@@H]1NCc1ccnc(-c2ccc(C(F)(F)F)cc2)n1 [Example 167, {(1S,2S)-2-[({2-[4-(trifluoromethyl)phenyl]pyrimidin-4-yl}methyl)amino]cyclohexyl}methanol]
810	CC(C)[C@H](CO)NCc1nc(-c2cccc(F)c2)ccc1F [Example 14, (2R)-2-({[3-fluoro-6-(3-fluorophenyl)pyridin-2-yl]methyl}amino)-3-methylbutan-1-ol]
170	CC(C)[C@H](CO)NCc1nc(-c2ccc(C(F)(F)F)s2)ccc1F [Example 290]
990	CC(C)[C@H](CO)NCc1cccc(C#Cc2ccccc2F)n1 [Example 285, (2R)-2-[({6-[(2-fluorophenyl)ethynyl]pyridin-2-yl}methyl)amino]-3-methylbutan-1-ol]
290	OCC1(NCc2nc(-c3ccc(C(F)(F)F)cc3)ccc2F)CCCC1 [Example 80, {1-[({3-fluoro-6-[4-(trifluoromethyl)phenyl]pyridin-2-yl}methyl)amino]cyclopentyl}methanol]
300	CC(O)C(C)NCc1nc(-c2ccc(C(F)(F)F)cc2)ccc1F (centres unmarked) [Example 86, 3-[({3-fluoro-6-[4-(trifluoromethyl)phenyl]pyridin-2-yl}methyl)amino]butan-2-ol]
290	CC(C)[C@H](CO)NCc1nc([C@H]2CC[C@H](C(F)(F)F)CC2)ccc1F [Example 258, (2R)-2-[({3-fluoro-6-[trans-4-(trifluoromethyl)cyclohexyl]pyridin-2-yl}methyl)amino]-3-methylbutan-1-ol]
1400	CC(=O)c1cccc(-c2ccc(F)c(CN[C@@H](CO)C(C)C)n2)c1 [Example 40, 1-{3-[5-fluoro-6-({[(2R)-1-hydroxy-3-methylbutan-2-yl]amino}methyl)pyridin-2-yl]phenyl}ethanone]
> 20000	CC(C)(O)CNCc1ccnc(-c2ccc(C(F)(F)F)cc2)n1 [Example 175, 2-methyl-1-[({2-[4-(trifluoromethyl)phenyl]pyrimidin-4-yl}methyl)amino]propan-2-ol]
460	CC(C)[C@H](CO)NCc1nc(-c2ccc(OCC(F)(F)F)cc2)ccc1F [Example 53, (2R)-2-[({3-fluoro-6-[4-(2,2,2-trifluoroethoxy)phenyl]pyridin-2-yl}methyl)amino]-3-methylbutan-1-ol]
8080	OC[C@H](NCc1ccnc(-c2ccc(C(F)(F)F)cc2)n1)c1ccccc1 [Example 139, (2R)-2-phenyl-2-[({2-[4-(trifluoromethyl)phenyl]pyrimidin-4-yl}methyl)amino]ethanol]
190	CC(C)[C@H](CO)NCc1nc(-c2cccc(S(=O)(=O)N(C)C(C)(C)C)c2)ccc1F [Example 61, N-tert-butyl-3-[5-fluoro-6-({[(2R)-1-hydroxy-3-methylbutan-2-yl]amino}methyl)pyridin-2-yl]-N-methylbenzenesulfonamide]
2160	CC(C)[C@H](CO)NCc1nc(-c2ccnc(N3CCOCC3)c2)ccc1F [Example 55, (2R)-2-({[5-fluoro-2′-(morpholin-4-yl)-2,4′-bipyridin-6-yl]methyl}amino)-3-methylbutan-1-ol]
140	CC(C)[C@H](CO)NCc1nc(N2CCc3cccc(F)c3C2)ccc1F [Example 99, (2R)-2-({[3-fluoro-6-(8-fluoro-3,4-dihydroisoquinolin-2(1H)-yl)pyridin-2-yl]methyl}amino)-3-methylbutan-1-ol]
> 20000	OCC1(CNCc2ccnc(-c3ccc(C(F)(F)F)cc3)n2)CCC1 [Example 157, (1-{[({2-[4-(trifluoromethyl)phenyl]pyrimidin-4-yl}methyl)amino]methyl}cyclobutyl)methanol]
> 20000	CC[C@H](CO)NCc1ccnc(-c2ccc(C(F)(F)F)cn2)n1 [Example 194, (2R)-2-[({2-[5-(trifluoromethyl)pyridin-2-yl]pyrimidin-4-yl}methyl)amino]butan-1-ol]
440	CC(C)[C@H](CO)NCc1cccc(-c2ccc(F)c(C#N)c2)n1 [Example 269, 2-fluoro-5-[6-({[(2R)-1-hydroxy-3-methylbutan-2-yl]amino}methyl)pyridin-2-yl]benzonitrile]
340	CC(C)[C@H](CO)NCc1nc(N2Cc3cccc(Cl)c3C2)ccc1F [Example 95, (2R)-2-({[6-(4-chloro-1,3-dihydro-2H-isoindol-2-yl)-3-fluoropyridin-2-yl]methyl}amino)-3-methylbutan-1-ol]

Structure (SMILES)	IC50 [nM]
CCCCOc1ccc(-c2cccc(CN[C@@H](CO)C(C)C)n2)cc1Cl [Example 262, (2R)-2-({[6-(4-butoxy-3-chlorophenyl)pyridin-2-yl]methyl}amino)-3-methylbutan-1-ol]	810
